Consider 18 compounds from patent publication US20250127912A1, “COMPOSITIONS FOR DELIVERY OF POLYNUCLEOTIDES” (miRecule, Inc., priority 2021, published 2025).

Series [1] is described as follows: Serum stability of miRNA mimic M30m3 alone or with cationic peptide/hybrid polymer in 5% human serum (TBE-urea gel). The settings on record: calculated based on first order decay comparing two time points; for Serum Stability at N/P1: M30m3 with polymer at N/P charge ratio 1, 37 C; for Serum Stability at N/P2: M30m3 with polymer at N/P charge ratio 2, 37 C.
Method: miRNA mimic M30m3 alone or with a cationic peptide or a hybrid polymer at N/P charge ratios of 1 or 2 were incubated with 5% human serum at 37° C. and samples were collected at t=0, 1 hr, 4 hrs, 20 hrs and 24 hrs (1 day). Upon collection, samples were mixed with sample loading buffer containing urea, bromophenol blue, xylene cylanol and nuclease inhibitor. Samples were then reduced, heated to 95° C. for 30 minutes, run on a TBE-urea gel and then stained for oligo using sybergold.
miRNA mimic M30m3 alone or with a cationic peptide or a hybrid polymer at N/P charge ratios of 1 or 2 were incubated with 5% human serum at 37° C. and samples were collected t=0 hr, 1 hr, 4 hrs, 8 hrs and 18 hrs (ns=no serum). Upon collection, samples were mixed with sample loading buffer containing urea, bromophenol blue, xylene cylanol and nuclease inhibitor. Samples were then reduced, heated to 95° C. for 30 minutes, run on a TBE-urea gel and then stained for oligo using sybergold.
miRNA mimic M30m3 alone or with a cationic peptide or a hybrid polymer at N/P charge ratios of 1 or 2 were incubated with 5% human serum at 37° C. and samples were collected at t=0 hr, 5 hrs, and 30 hrs (ns=no serum). Upon collection, samples were mixed with sample loading buffer containing urea, bromophenol blue, xylene cylanol and nuclease inhibitor. Samples were then reduced, heated to 95° C. for 30 minutes, run on a TBE-urea gel and then stained for oligo using sybergold.
miRNA mimic M30m3 alone or with a cationic peptide or a hybrid polymer at N/P charge ratios of 1 or 2 were incubated with 5% human serum at 37° C. and samples were collected at t=0 hr, 4 hrs, and 24 hrs. Upon collection, samples were mixed with sample loading buffer containing urea, bromophenol blue, xylene cylanol and nuclease inhibitor. Samples were then reduced, heated to 95° C. for 30 minutes, run on a TBE-urea gel and then stained for oligo using sybergold.
Series [2] is described as follows: Biodistribution of IR750-NCD5 cetuximab conjugates in mice with orthotopic UM-SCC-1^luc tumors. As to conditions: 5 mg/kg IR750-NCD5 cetuximab conjugate, N/P of 1; 24 and 48 hours.

No end group written: not given here. PEG1000 = N-terminal 1 kDa PEG spacer; PEG5000 = N-terminal 5 kDa PEG spacer; PEG2000 = PEG polymer of 2000 Da

Take “[PEG2000]-RRRRRRRRRRRR (PEG2000-RRRRRRRRRRRR) [PEG2000DaPolyArg12]”: in series [1], the “Serum Stability at N/P1” value is 15 h and the “Serum Stability at N/P2” value was 46.67 h.

With `N=C(N)NCCC[C@H](NC(=O)[C@H](CCCNC(=N)N)NC(=O)[C@H](CCCNC(=N)N)NC(=O)[C@H](CCCNC(=N)N)NC(=O)[C@H](CCCNC(=N)N)NC(=O)[C@H](CCCNC(=N)N)NC(=O)[C@H](CCCNC(=N)N)NC(=O)[C@H](CCCNC(=N)N)NC(=O)[C@H](CCCNC(=N)N)NC(=O)[C@H](CCCNC(=N)N)NC(=O)[C@H](CCCNC(=N)N)NC(=O)[C@@H](N)CCCNC(=N)N)C(=O)N[C@@H](CS)C(=O)O` [PolyArg12C], in series [1], the “Serum Stability at N/P1” value is 25.99 h and the “Serum Stability at N/P2” value was 31.12 h.

On to `N=C(N)NCCCCN` [Agmatine, reference compound], for which, in series [1], the “Serum Stability at N/P1” value is 20.78 h and the “Serum Stability at N/P2” value was 17.33 h.

On to “[PEG5000]-RRRRRRRRRRRR (PEG5000-RRRRRRRRRRRR) [PEG5000DaPolyArg12]”, for which, in series [1], the “Serum Stability at N/P1” value is 14.08 h and the “Serum Stability at N/P2” value is 20.91 h.

Take “M048 Alone: miR-30 mimic duplex M30m3 without polymer; guide SEQ ID NO: 38, passenger SEQ ID NO: 39 (guide UGUAAACAUCCUGCGACUGGAAG; sense UCCAGUCGAGGAUGUUUACA; modified_base 11 cm; modified_base 14 cm; modified_base 17 cm; modified_base 12 um; modified_base 18 um; modified_base 13 gm; modified_base 15 gm; modified_base 19 gm; modified_base 23 gm; modified_base 16 OTHER; 2'-O-methyladenosine; modified_base 22 OTHER; 2'-fluoroadenosine; misc_feature 21..22 phosphorothioate linkage; misc_feature 22..23 phosphorothioate linkage; misc_feature 1 amino C6 linker; modified_base 1 um; modified_base 2 cm; modified_base 3 cm; modified_base 19 cm; modified_base 18 OTHER; modified_base 20 OTHER)”: in series [1], the “Serum Stability at N/P1” value is 21.57 h.

Take “[PEG12][PEG12]RRRRRRRRRRRR (N-terminal PEG24; MOD_RES 1 N-terminal PEG24 spacer) [PEP24PolyArg12]”: in series [1], the “Serum Stability at N/P1” value is 21.21 h and the “Serum Stability at N/P2” value is 39.41 h.

With `N=C(N)NCCC[C@H](N)C(=O)O` [Arginine, reference compound], in series [1], the “Serum Stability at N/P1” value was 7.179 h and the “Serum Stability at N/P2” value was 12.26 h.

Consider `N=C(N)NCCC[C@H](NC(=O)[C@H](CCCNC(=N)N)NC(=O)[C@H](CCCNC(=N)N)NC(=O)[C@H](CCCNC(=N)N)NC(=O)[C@H](CCCNC(=N)N)NC(=O)[C@H](CCCNC(=N)N)NC(=O)[C@H](CCCNC(=N)N)NC(=O)[C@H](CCCNC(=N)N)NC(=O)[C@H](CCCNC(=N)N)NC(=O)[C@H](CCCNC(=N)N)NC(=O)[C@H](CCCNC(=N)N)NC(=O)[C@H](CCCNC(=N)N)NC(=O)[C@@H](N)CS)C(=O)N[C@@H](CS)C(=O)O` [CPolyArg12C], for which, in series [1], the “Serum Stability at N/P1” value was 34.91 h and the “Serum Stability at N/P2” value is 18.1 h.

`NC(N)=NCCC[C@H](NC(=O)[C@H](CCCN=C(N)N)NC(=O)[C@H](CCCN=C(N)N)NC(=O)[C@H](CCCN=C(N)N)NC(=O)[C@H](CCCN=C(N)N)NC(=O)[C@@H](N)CCCN=C(N)N)C(=O)O` [PolyArg6, RRRRRR]: in series [1], the “Serum Stability at N/P1” value was 26.74 h and the “Serum Stability at N/P2” value is 22.23 h.

For `NCCCNCCCCNCCCN` [Spermine, reference compound], in series [1], the “Serum Stability at N/P1” value was 18.95 h and the “Serum Stability at N/P2” value was 12.98 h.

Take [PEG12]RRRRRR [PEG12PolyArg6]: in series [1], the “Serum Stability at N/P1” value was 19.74 h and the “Serum Stability at N/P2” value was 27.96 h.

In the case of RTRRTRRTRRTRRTRRTR [PolyArg12Tinsert], in series [1], the “Serum Stability at N/P1” value is 19.21 h and the “Serum Stability at N/P2” value is 16.9 h.

“[PEG12]RRRRRRRRRRRR (N-terminal PEG12; MOD_RES 1 N-terminal PEG12 spacer) [PEG12PolyArg12]”: in series [2], the “delivery to the tumor (IR-750 fluorescence)” value is listed as “markedly improves delivery to the tumor”; the “liver and kidney delivery (IR-750 fluorescence)” value was “reduces liver and kidney delivery”.

Regarding “[PEG12]RdRdRdRdRdRdRdRdRd [PEG12PolyArg9d]”, in series [1], the “Serum Stability at N/P1” value was 24.7 h and the “Serum Stability at N/P2” value was 29.03 h.

As for “[PEG1000]-RRRRRRRRRRRR (PEG1000-RRRRRRRRRRRR) [PEG1000DaPolyArg12]”, in series [1], the “Serum Stability at N/P1” value is 33.58 h and the “Serum Stability at N/P2” value was 20.29 h.

Turning to “RRRRRRRRRRRR-[NHS Ester-BranchedPEG2kda] [PolyArg12bp2kDa]”, in series [1], the “Serum Stability at N/P1” value is 19.96 h and the “Serum Stability at N/P2” value is 19.2 h.

Consider TTTTTTRRRRRRRRRRRR [T6PolyArg12], for which, in series [1], the “Serum Stability at N/P1” value is 25.6 h and the “Serum Stability at N/P2” value was 18.06 h.

With “[PEG12]RdRdRdRdRdRdRdRdRdRdRdRd (RRRRRRRRRRRR; N-terminal PEG12; D-arginines; MOD_RES 1 N-terminal PEG12 spacer; MOD_RES 1..12 D-Arginine) [PEG12PolyArg12{d}]”, in series [1], the “Serum Stability at N/P1” value is 57.63 h and the “Serum Stability at N/P2” value was 90.35 h.
